Consider 17 compounds from patent US20130158112A1, “COMPOSITIONS AND METHODS FOR INHIBITING BETA AMYLOID SECRETION” (priority 2011, published 2013).

Each structure is given as a SMILES string. Some results are limits rather than exact numbers.

Data set [1] relates to H4βAPP695 wt cells. Kind of data set: Cytotoxicity by total cell protein content (BCA) of H4βAPP695 wt cells. Particulars: cytotoxicity.
The test system of data set [2] is Aβ secretion. Kind of data set: Secreted total Aβ ELISA in conditioned media of H4βAPP695 wt cells. The format is cell-based, human. Particulars: for inhibition at 10 µM / inhibition at 30 µM: Homo sapiens, 24 h, H4βAPP695 wt cells; for inhibition at 10 µM: read-out: Total Aβ (% decrease) 10 μM Mean; for inhibition at 30 µM: read-out: Total Aβ (% decrease) 30 μM Mean; for Aβ secretion inhibiting activity (structure activity summary): in words. The protocol:
H4βAPP695 wt cells, a human […] cell line stably transfected with a wtβAPP695 expression vector construct under the control of a CMV promoter (kindly provided by Dr. Chris Eckman from Mayo Clinic, Florida) were cultured as previously described. Twenty-four hours before drug treatment, the media was replaced with serum-free media. Cells were then incubated with drugs (dissolved in DMSO) or vehicle for 24 h for collection of conditioned media and cell lysates. For the PKC inhibitors experiment, three inhibitors were treated 30 min prior to drug challenge. Primary cortical neurons were prepared from embryonic day 18 APP and presenilin 1 (APPswe, PSEN1dE9) transgenic mice on the C57BL/6 genetic background (Jackson Laboratories, strain no. 5864) as previously described. THLE-3 human hepatoma cells (from ATCC) were plated in 24-well plates that were precoated with 10 μg/mL bovine serum albumin, 10 μg/mL fibronectin, and 30 μg/mL bovine type I collagen. The cells were grown in BEGM media (Clonetics) until confluent and treated with drugs at 20 μM for 24 h. This conditioned media was harvested, diluted 1:1 in serum-free medium, and incubated with H4βAPP695 wt cells for 24 h prior to analysis of secreted Aβ, which was compared to the effect of 10 μM drug treatments without prior incubation with the THLE-3 cells. Caco-2 cells (ATCC) were plated in 12-well plates with Transwell inserts (Costar) at 70000 cells per well and grown for 21 days. The media volume of the apical and basal chambers was 0.5 and 1.5 mL, respectively. Transepithelial resistance was measured in each well and found to be >160 Ω/cm^2. Drugs at 40 μM and 20 μg/mL of lucifer yellow were added in serum-free medium to the apical chamber. Four hours later, the basal chamber media was harvested and used to measure lucifer yellow fluorescence to confirm monolayer integrity as well as for treatment of H4βAPP695 wt cells for 24 h prior to analysis of secreted Aβ, which was compared to the effect of direct addition of 10 μM of the corresponding drug.
On the technique in general: An ELISA detects its analyte on a solid surface through an enzyme-linked reagent.

Compound `N#Cc1c(Cl)cccc1CSCCNC(=O)c1c(Cl)cccc1Cl` [Compound 62, 2,6-Dichloro-N-[2-(3-chloro-2-cyano-benzylsulfanyl)-ethyl]-benzamide] registered a melting point of 166 to 168 °C. Moreover, in data set [1], the “Cell protein (% decrease) 10 μM Mean” value worked out at 3.5% and the “Cell protein (% decrease) 30 μM Mean” value stood at 1.3%. In addition, in data set [2], the inhibition at 10 µM was 48.7% and the inhibition at 30 µM was determined as 52.3%.

`O=C(NC1CC1)c1cccc(CSCCNC(=O)c2c(Cl)cccc2Cl)c1` [Compound 68, 2,6-Dichloro-N-[2-(3-cyclopropylcarbamoyl-benzylsulfanyl)-ethyl]-benzamide] registered a melting point of 42 to 43 °C. For the same compound, in data set [1], the “Cell protein (% decrease) 10 μM Mean” value came out at 0% and the “Cell protein (% decrease) 30 μM Mean” value is −1%. In data set [2], the inhibition at 10 µM stood at 1.9%, the inhibition at 30 µM was 11% and the “Aβ secretion inhibiting activity (structure activity summary)” value (“Aβ secretion inhibiting activity” below) is “did not yield good activity”.

`O=C(NCCSCc1ccc(O)cc1)c1c(Cl)cccc1Cl` [Compound 28, 2,6-Dichloro-N-[2-(4-hydroxy-benzylsulfanyl)-ethyl]-benzamide] yielded a melting point of 138 to 140 °C. In data set [1], the “Cell protein (% decrease) 10 μM Mean” value came out at 8.7% and the “Cell protein (% decrease) 30 μM Mean” value worked out at 4.4%. In addition, in data set [2], the inhibition at 10 µM stood at 13.1%, the inhibition at 30 µM turned out to be 56.7% and the “Aβ secretion inhibiting activity” value is “loss of activity”.

`O=C(NCCOCc1cccc(Cl)c1)c1c(Cl)cccc1Cl` [Compound 72, 2,6-Dichloro-N-[2-(3-chloro-benzyloxy)-ethyl]-benzamide] had a melting point of 70 to 72 °C. Also, in data set [1], the “Cell protein (% decrease) 10 μM Mean” value is given as −9.9% and the “Cell protein (% decrease) 30 μM Mean” value turned out to be 4.2%. Also, in data set [2], the inhibition at 10 µM was determined as 10.5%, the inhibition at 30 µM was -5.1% and the “Aβ secretion inhibiting activity” value is “No tested substitutions in the linker region were well tolerated”.

`O=C(NCCSCc1cccc(F)c1)c1c(Cl)cccc1Cl` [Compound 47, 2,6-Dichloro-N-[2-(3-fluoro-benzylsulfanyl)-ethyl]-benzamide]: the melting point was 70 to 72 °C. For the same compound, in data set [1], the “Cell protein (% decrease) 10 μM Mean” value turned out to be 2.6% and the “Cell protein (% decrease) 30 μM Mean” value is 3.7%. In data set [2], the inhibition at 10 µM was found to be 10.2%, the inhibition at 30 µM turned out to be 36.1% and the “Aβ secretion inhibiting activity” value is “did not yield good activity”.

The compound `O=C(NCCSCc1cccc(Br)c1)c1c(Br)cccc1Br` [Compound 55, 2,6-Dibromo-N-[2-(3-bromo-benzylsulfanyl)-ethyl]-benzamide] returned a melting point of 70 to 72 °C. In data set [1], the “Cell protein (% decrease) 10 μM Mean” value is 9.8% and the “Cell protein (% decrease) 30 μM Mean” value amounted to 23.9%. In data set [2], the inhibition at 30 µM is 87.3% and the “Aβ secretion inhibiting activity” value was “maintained activity”.

Regarding `O=C(NCCSCc1cccc([N+](=O)[O-])c1)c1c(Cl)cccc1Cl` [Compound 40, 2,6-Dichloro-N-[2-(3-nitro-benzylsulfanyl)-ethyl]-benzamide], the melting point is 76 to 78 °C. Moreover, in data set [1], the “Cell protein (% decrease) 10 μM Mean” value was 7.5% and the “Cell protein (% decrease) 30 μM Mean” value is 24.6%. In data set [2], the inhibition at 10 µM was > 50%, the inhibition at 30 µM was found to be 72.5% and the “Aβ secretion inhibiting activity” value is “good activity”.

In the case of `COc1ccc(CSCCNC(=O)c2c(Cl)cccc2Cl)cc1` [Compound 26, 2,6-Dichloro-N-[2-(4-methoxy-benzylsulfanyl)-ethyl]-benzamide], the melting point was 80 to 81 °C. Further, in data set [1], the “Cell protein (% decrease) 10 μM Mean” value is listed as 6.7% and the “Cell protein (% decrease) 30 μM Mean” value came out at 12.7%. Also, in data set [2], the inhibition at 10 µM is 1.6%, the inhibition at 30 µM stood at 1.1% and the “Aβ secretion inhibiting activity” value is listed as “loss of activity”.

Regarding `O=C(NCCSCc1cccc(Cl)c1)c1c(C(F)(F)F)cccc1C(F)(F)F` [Compound 74, N-[2-(3-Chloro-benzylsulfanyl)-ethyl]-2,6-bis-trifluoromethyl-benzamide], the melting point was 93 to 94 °C. Moreover, in data set [1], the “Cell protein (% decrease) 10 μM Mean” value is −4.2% and the “Cell protein (% decrease) 30 μM Mean” value was −0.4%. Also, in data set [2], the inhibition at 10 µM was determined as 6.2%, the inhibition at 30 µM is 13.5% and the “Aβ secretion inhibiting activity” value is on record as “not well tolerated”.

`N#Cc1cccc(CSCCNC(=O)c2c(Cl)cccc2Cl)c1` [Compound 38, 2,6-Dichloro-N-[2-(3-cyano-benzylsulfanyl)-ethyl]-benzamide] had a melting point of 123 to 125 °C. For the same compound, in data set [1], the “Cell protein (% decrease) 10 μM Mean” value is −4.8% and the “Cell protein (% decrease) 30 μM Mean” value amounted to 4.3%. Also, in data set [2], the inhibition at 10 µM came out at 20%, the inhibition at 30 µM is 38.7% and the “Aβ secretion inhibiting activity” value is “did not yield good activity”.

As for `O=C(NCCSCc1cccc(C(F)(F)F)c1)c1c(Cl)cccc1Cl` [Compound 50, 2,6-Dichloro-N-[2-(3-trifluoromethyl-benzylsulfanyl)-ethyl]-benzamide], the melting point was 54 to 55 °C. Moreover, the “Cell protein (% decrease) 10 μM Mean” value in data set [1] worked out at 19%. For the same compound, in data set [2], the inhibition at 30 µM was determined as 93.4% and the “Aβ secretion inhibiting activity” value is “good activity”.

For `O=C(NCCS(=O)(=O)Cc1cccc(Cl)c1)c1c(Cl)cccc1Cl` [Compound 66, 2,6-Dichloro-N-[2-(3-chloro-phenylmethanesulfonyl)-ethyl]-benzamide], the melting point lay within 156 to 158 °C. In data set [1], the “Cell protein (% decrease) 10 μM Mean” value is on record as −2.2% and the “Cell protein (% decrease) 30 μM Mean” value is on record as −3.8%. In data set [2], the inhibition at 10 µM turned out to be 8.9%, the inhibition at 30 µM came out at 9.3% and the “Aβ secretion inhibiting activity” value is “No tested substitutions in the linker region were well tolerated”.

`O=Cc1cccc(CSCCNC(=O)c2c(Cl)cccc2Cl)c1` [Compound 49, 2,6-Dichloro-N-[2-(3-formyl-benzylsulfanyl)-ethyl]-benzamide] displayed a melting point of 63 to 65 °C. In data set [1], the “Cell protein (% decrease) 10 μM Mean” value is reported as 1.5% and the “Cell protein (% decrease) 30 μM Mean” value is on record as −2.1%. For the same compound, in data set [2], the inhibition at 10 µM amounted to 19.9%, the inhibition at 30 µM is 36.4% and the “Aβ secretion inhibiting activity” value was “did not yield good activity”.

`O=C(NCCSCc1cccc(Cl)c1)c1c(F)cccc1F` [Compound 67, N-[2-(3-Chloro-benzylsulfanyl)-ethyl]-2,6-difluoro-benzamide]: the melting point lay in the range of 41 to 43 °C. In data set [1], the “Cell protein (% decrease) 10 μM Mean” value is recorded as 5.1% and the “Cell protein (% decrease) 30 μM Mean” value is reported as 8.1%. In data set [2], the inhibition at 10 µM was 4.9%, the inhibition at 30 µM turned out to be 21.6% and the “Aβ secretion inhibiting activity” value is “not well tolerated”.

The compound `COc1cccc(CSCCNC(=O)c2c(OC)cccc2OC)c1` [Compound 34, 2,6-Dimethoxy-N-[2-(3-methoxy-benzylsulfanyl)-ethyl]-benzamide] returned a melting point of 41 to 43 °C. In data set [1], the “Cell protein (% decrease) 10 μM Mean” value is given as 0.5% and the “Cell protein (% decrease) 30 μM Mean” value is 3.9%. In data set [2], the inhibition at 10 µM stood at 6.2%, the inhibition at 30 µM is -0.6% and the “Aβ secretion inhibiting activity” value is reported as “not well tolerated”.

Take `COc1cccc(CSCCNC(=O)c2c(Cl)cccc2OC)c1` [Compound 42, 2-Chloro-6-methoxy-N-[2-(3-methoxy-benzylsulfanyl)-ethyl]-benzamide]: the melting point was in the range of 58 to 59 °C. In data set [1], the “Cell protein (% decrease) 10 μM Mean” value is reported as 1.9% and the “Cell protein (% decrease) 30 μM Mean” value was 9.3%. For the same compound, in data set [2], the inhibition at 10 µM was -2.9% and the inhibition at 30 µM was -4.7%.

Compound `O=C(NCCS(=O)(=O)Cc1cccc(O)c1)c1c(Cl)cccc1Cl` [Compound 31, 2,6-Dichloro-N-[2-(3-hydroxy-phenylmethanesulfonyl)-ethyl]-benzamide] yielded a melting point of 139 to 141 °C. In addition, in data set [1], the “Cell protein (% decrease) 10 μM Mean” value was 7.7% and the “Cell protein (% decrease) 30 μM Mean” value is reported as 4.4%. In addition, in data set [2], the inhibition at 10 µM is -10.1%, the inhibition at 30 µM was determined as 9.6% and the “Aβ secretion inhibiting activity” value is given as “No tested substitutions in the linker region were well tolerated”.

One may read the melting point as the temperature of the solid-liquid transition.
